From patent US20260285853A1, “COMPOUNDS AND METHODS FOR MODULATING SPLICING” (REMIX THERAPEUTICS INC., priority 2023, published 2026) come the findings set out here.

Structures are written as SMILES.

For orientation: AC50 means the concentration at which the activity in the assay is half-maximal. One may read the IC50 as the point on the concentration scale where inhibition reaches its midpoint. Usually GI50 stands for the concentration at which growth is held to half of that of the control.

Format in all cases: cell-based
Test [1] deals with HTT mRNA. The experiment in a line: Splicing RT-qPCR assay (THP), Table 2A. Conditions: Table 2A, THP; for AC50: HTT alternative junction (AJ) mRNA, read-out: HTT AJ (AC50, increase in alternative junction mRNA); for IC50: HTT canonical junction (CJ) mRNA, read-out: HTT CJ (IC50, decrease in canonical junction mRNA). (Real-time PCR tracks product formation cycle by cycle.)
Test [2] has as its system MYB mRNA. Briefly: Splicing RT-qPCR assay (THP), Table 2A. As to conditions: Table 2A, THP; for AC50: MYB alternative junction (AJ) mRNA, read-out: MYB AJ (AC50, increase in alternative junction mRNA); for IC50: MYB canonical junction (CJ) mRNA, read-out: MYB CJ (IC50, decrease in canonical junction mRNA).
Test [3] relates to HTT mRNA. The experiment in a line: Gene panel canonical junction qPCR assay, decrease in CJ mRNA, Table 3. As to conditions: decrease in CJ mRNA levels, canonical junction qPCR, gene panel. Put shortly:
(§1)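 IC50 denotes the concentration giving 50% decrease in canonical-junction mRNA, fitted by 4-parameter logistic to percentage response derived from ΔΔCt versus housekeeping gene and DMSO control. Cells (A673 or K562) exposed 24 h to 11-point 3-fold serial dilutions from 10 uM top, DMSO ≤0.25%; junction-spanning primer/probe qPCR.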

The subject of test [4] is MYB mRNA. The description is as above. Conditions: decrease in CJ mRNA levels, canonical junction qPCR, gene panel. Put shortly:
as §1

Test [5] concerns SH-SY5Y (human neuroblastoma) cells. Briefly: Cell viability, Cell Titer Glo 2.0 assay. Conditions: read-out: Viability SHSY5Y.3 GI50. In a few lines:
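Viability was read by CellTiter-Glo 2.0 luminescence after a 72-hour compound exposure at 37° C. under 5% CO2. Cells were in IMDM plus 10% FBS containing 0.1% DMSO, and medium-only wells gave the blank.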

Turning to `CCNC1CCN(c2ccc(C(=O)Nc3cc(F)c4nn(C)cc4c3)c3nc(OC)sc23)CC1` [Compound 704, 7-(4-(ethylamino)piperidin-1-yl)-N-(7-fluoro-2-methyl-2H-indazol-5-yl)-2-methoxybenzo[d]thiazole-4-carboxamide 2,2,2-trifluoroacetate], the AC50 in the test on HTT mRNA [1] was 0.1 to 1 µM; in the test with MYB mRNA [2] it was less than 0.1 µM. Further, the half-inhibitory concentration (IC50) in the test on HTT mRNA [1] was 0.1 to 1 µM; with MYB mRNA [2], less than 0.1 µM; with HTT mRNA [3], 0.1 to 1 µM; in the test on MYB mRNA [4] it was less than 0.1 µM. The GI50 in test [5] is 0.1 to 1 µM.
In the case of `COc1nc2c(C(=O)Nc3cc(F)c4nc(C)cn4c3)ccc(N3C[C@H](C)N[C@@H](C)C3)c2s1` [Compound 705, 7-[(3S,5S)-3,5-dimethylpiperazin-1-yl]-N-(8-fluoro-2-methyl-imidazo[1,2-a]pyridin-6-yl)-2-methoxy-1,3-benzothiazole-4-carboxamide], the AC50 with HTT mRNA [1] is 0.1 to 1 µM; with MYB mRNA [2], less than 0.1 µM. Further, the IC50 with HTT mRNA [1] is 0.1 to 1 µM; with MYB mRNA [2], less than 0.1 µM; with HTT mRNA [3], 0.1 to 1 µM; with MYB mRNA [4], less than 0.1 µM. Also, the GI50 in test [5] was less than 0.1 µM.
As to `C[C@H]1CN(c2ccc(C(=O)Nc3cc(F)c4nn(C)cc4c3)c3nc(CNS(C)(=O)=O)sc23)C[C@H](C)N1` [Compound 706, 7-[(3S,5S)-3,5-dimethylpiperazin-1-yl]-N-(7-fluoro-2-methyl-indazol-5-yl)-2-(methanesulfonamidomethyl)-1,3-benzothiazole-4-carboxamide], the AC50 is 0.1 to 1 µM with HTT mRNA [1] and less than 0.1 µM in the test with MYB mRNA [2]. In addition, the IC50 with HTT mRNA [1], in the test with MYB mRNA [2], with HTT mRNA [3] and with MYB mRNA [4] was 0.1 to 1 µM in each case. In test [5], the GI50 was 0.1 to 1 µM.
Take `C[C@H]1CN(c2ccc(C(=O)Nc3cc(F)c4nn(C)cc4c3)c3nc(CN)sc23)C[C@H](C)N1` [Compound 707, 2-(aminomethyl)-7-[(3S,5S)-3,5-dimethylpiperazin-1-yl]-N-(7-fluoro-2-methyl-indazol-5-yl)-1,3-benzothiazole-4-carboxamide]: the AC50 in the test with HTT mRNA [1] was 0.1 to 1 µM; with MYB mRNA [2] it was less than 0.1 µM. Further, the IC50 was 1 to 10 µM with HTT mRNA [1], less than 0.1 µM in the test with MYB mRNA [2], 1 to 10 µM in the test on HTT mRNA [3] and less than 0.1 µM in the test on MYB mRNA [4]. Also, the GI50 in test [5] was 0.1 to 1 µM.
As to `Cn1cc2cc(NC(=O)c3cc(F)c(N4CCC(NC5CC5)CC4)c4cn(C)nc34)cc(F)c2n1` [Compound 708, 4-[4-(cyclopropylamino)-1-piperidyl]-5-fluoro-N-(7-fluoro-2-methyl-indazol-5-yl)-2-methyl-indazole-7-carboxamide], the figures for the AC50 in the test with HTT mRNA [1] and in the test with MYB mRNA [2] were more than 10 µM and 1 to 10 µM, respectively. The IC50 with HTT mRNA [1], in the test with MYB mRNA [2], in the test with HTT mRNA [3] and in the test on MYB mRNA [4] was more than 10 µM in each case. For the same compound, the GI50 in test [5] was in the range of 1 to 10 µM.
For `COc1c(NC(=O)c2cc(F)c(N3CCC(NC4CC4)CC3)c3cn(C)nc23)cn2cc(C)nc2c1F` [Compound 709], the AC50 in the test on HTT mRNA [1] was in the range of 1 to 10 µM; in the test with MYB mRNA [2], 0.1 to 1 µM. Moreover, the IC50 in the test with HTT mRNA [1] fell in the range of 1 to 10 µM; with MYB mRNA [2], 0.1 to 1 µM; in the test on HTT mRNA [3] it was 1 to 10 µM; in the test on MYB mRNA [4], 0.1 to 1 µM. Further, in test [5], the GI50 fell in the range of 1 to 10 µM.
`COc1nc2c(C(=O)Nc3cc4c(C)nc(C)cn4n3)ccc(N3C[C@H](C)N[C@@H](C)C3)c2s1` [Compound 710, 7-[(3S,5S)-3,5-dimethylpiperazin-1-yl]-N-(4,6-dimethylpyrazolo[1,5-a]pyrazin-2-yl)-2-methoxy-1,3-benzothiazole-4-carboxamide]: the AC50 with HTT mRNA [1] and with MYB mRNA [2] was 1 to 10 µM each time. Besides, the IC50 in the test on HTT mRNA [1], in the test with MYB mRNA [2], with HTT mRNA [3] and with MYB mRNA [4] was 1 to 10 µM throughout. For the same compound, the GI50 in test [5] fell in the range of 1 to 10 µM.
With `COc1nc2c(C(=O)Nc3cn4cc(C)nc(C)c4n3)ccc(N3C[C@H](C)N[C@@H](C)C3)c2s1` [Compound 711, N-(6,8-dimethylimidazo[1,2-a]pyrazin-2-yl)-7-[(3S,5S)-3,5-dimethylpiperazin-1-yl]-2-methoxy-1,3-benzothiazole-4-carboxamide], the figures for the AC50 in the test on HTT mRNA [1] and in the test with MYB mRNA [2] were more than 10 µM and 1 to 10 µM, respectively. For the same compound, the IC50 in the test on HTT mRNA [1] was more than 10 µM; with MYB mRNA [2], 1 to 10 µM; in the test with HTT mRNA [3], more than 10 µM; in the test on MYB mRNA [4], 1 to 10 µM. In test [5], the GI50 fell in the range of 1 to 10 µM.
Turning to `C[C@H]1CN(c2ccc(C(=O)Nc3cc(F)c4nn(C)cc4c3)c3nc(OCCO)sc23)C[C@H](C)N1` [Compound 712, 7-[(3S,5S)-3,5-dimethylpiperazin-1-yl]-N-(7-fluoro-2-methyl-indazol-5-yl)-2-(2-hydroxyethoxy)-1,3-benzothiazole-4-carboxamide], the AC50 in the test on HTT mRNA [1] and in the test with MYB mRNA [2] was less than 0.1 µM each time. For the same compound, the IC50 in the test on HTT mRNA [1], in the test on MYB mRNA [2], in the test with HTT mRNA [3] and in the test on MYB mRNA [4] was less than 0.1 µM throughout. Further, the concentration for 50% growth inhibition (GI50) in test [5] was less than 0.1 µM.
On to `Cc1cn2cc(NC(=O)c3cc(F)c(N4CCC(NC5CC5)CC4)c4cn(C)nc34)cc(F)c2n1` [Compound 713, 4-[4-(cyclopropylamino)-1-piperidyl]-5-fluoro-N-(8-fluoro-2-methyl-imidazo[1,2-a]pyridin-6-yl)-2-methyl-indazole-7-carboxamide], for which the AC50 with HTT mRNA [1] was more than 10 µM; in the test with MYB mRNA [2], 0.1 to 1 µM. The IC50 in the test on HTT mRNA [1] was more than 10 µM; with MYB mRNA [2] it was 0.1 to 1 µM; in the test on HTT mRNA [3] it was more than 10 µM; with MYB mRNA [4] it was 0.1 to 1 µM. Moreover, the concentration for 50% growth inhibition (GI50) in test [5] is 0.1 to 1 µM.
As to `COc1nc2c(C(=O)Nc3ccc4nn(C)cc4n3)ccc(N3C[C@H](C)N[C@@H](C)C3)c2s1` [Compound 714, 7-[(3S,5S)-3,5-dimethylpiperazin-1-yl]-2-methoxy-N-(2-methylpyrazolo[4,3-b]pyridin-5-yl)-1,3-benzothiazole-4-carboxamide], the AC50 was 0.1 to 1 µM in the test with HTT mRNA [1] and less than 0.1 µM in the test on MYB mRNA [2]. Also, the IC50 in the test on HTT mRNA [1] was 0.1 to 1 µM; in the test on MYB mRNA [2] it was less than 0.1 µM; with HTT mRNA [3], 0.1 to 1 µM; in the test with MYB mRNA [4], less than 0.1 µM. The GI50 in test [5] was less than 0.1 µM.
On to `COc1nc2c(C(=O)Nc3cccc4c3cnn4C)ccc(N3C[C@H](C)N[C@@H](C)C3)c2s1` [Compound 715], for which the concentration at half-maximal activity (AC50) in the test with HTT mRNA [1] and with MYB mRNA [2] was more than 10 µM throughout. For the same compound, the IC50 with HTT mRNA [1], in the test with MYB mRNA [2], with HTT mRNA [3] and with MYB mRNA [4] was more than 10 µM in each case. Moreover, the GI50 in test [5] was 0.1 to 1 µM.
`COc1nc2c(C(=O)Nc3ccc4c(c3)OCCO4)ccc(N3C[C@H](C)N[C@@H](C)C3)c2s1` [Compound 716, N-(2,3-dihydro-1,4-benzodioxin-6-yl)-7-[(3S,5S)-3,5-dimethylpiperazin-1-yl]-2-methoxy-1,3-benzothiazole-4-carboxamide]: the AC50 in the test with HTT mRNA [1] was more than 10 µM; in the test on MYB mRNA [2], 1 to 10 µM. In addition, the IC50 in the test with HTT mRNA [1], with MYB mRNA [2], in the test with HTT mRNA [3] and in the test with MYB mRNA [4] was 1 to 10 µM throughout. Also, the GI50 in test [5] lay within 1 to 10 µM.
On to `COc1nc2c(C(=O)Nc3cc(C)c4nn(C)cc4c3OC)ccc(N3C[C@H](C)N[C@@H](C)C3)c2s1` [Compound 717, 7-[(3S,5S)-3,5-dimethylpiperazin-1-yl]-2-methoxy-N-(4-methoxy-2,7-dimethyl-indazol-5-yl)-1,3-benzothiazole-4-carboxamide], for which the AC50 in the test on HTT mRNA [1] and with MYB mRNA [2] was more than 10 µM each time. Further, the half-inhibitory concentration (IC50) in the test with HTT mRNA [1] was 1 to 10 µM; in the test with MYB mRNA [2] it was more than 10 µM; with HTT mRNA [3], 1 to 10 µM; in the test on MYB mRNA [4], more than 10 µM. Further, the GI50 in test [5] fell in the range of 1 to 10 µM.
Consider `COc1nc2c(C(=O)Nc3cc(C)c4nn(C)cc4c3)ccc(N3C[C@H](C)N[C@@H](C)C3)c2s1` [Compound 718, N-(2,7-dimethylindazol-5-yl)-7-[(3S,5S)-3,5-dimethylpiperazin-1-yl]-2-methoxy-1,3-benzothiazole-4-carboxamide], for which the concentration at half-maximal activity (AC50) is 1 to 10 µM with HTT mRNA [1] and less than 0.1 µM with MYB mRNA [2]. Also, the IC50 with HTT mRNA [1] is 1 to 10 µM; in the test on MYB mRNA [2], less than 0.1 µM; in the test with HTT mRNA [3] it was 1 to 10 µM; in the test with MYB mRNA [4], less than 0.1 µM. Besides, the GI50 in test [5] was less than 0.1 µM.
As to `COc1nc2c(C(=O)Nc3cc(F)c4nn(C)cc4c3)ccc(N3C[C@@H](C)N[C@H](C)C3)c2s1` [Compound 719, 7-[(3R,5R)-3,5-dimethylpiperazin-1-yl]-N-(7-fluoro-2-methyl-indazol-5-yl)-2-methoxy-1,3-benzothiazole-4-carboxamide], the values for the AC50 with HTT mRNA [1] and in the test on MYB mRNA [2] were 1 to 10 µM and less than 0.1 µM, respectively. The IC50 in the test on HTT mRNA [1] is 1 to 10 µM; with MYB mRNA [2], less than 0.1 µM; in the test on HTT mRNA [3], 1 to 10 µM; in the test with MYB mRNA [4] it was less than 0.1 µM. Further, in test [5], the GI50 lay within 0.1 to 1 µM.
